Reference: ChEMBL document CHEMBL1146664, “Cytochrome P450/NADPH-dependent formation of trans epoxides from trans-arachidonic acids” (Bioorg Med Chem Lett, 2004)

Test: Level reaching in blood plasma of rat or human was determined
Assay type: ADME, cell-free

Activity [µM]	SMILES
0.5	CCCCC/C=C/CC1OC1C/C=C\C/C=C\CCCC(=O)O (stereo not given)
0.5	CCCCCC1OC1C/C=C\C/C=C\C/C=C\CCCC(=O)O (trans isomer)

More lines, now with the values behind:

SMILES	Activity [µM]
CCCCCC(O)C(O)C/C=C\C/C=C\C/C=C\CCCC(=O)O (stereo not given)	0.5
CCCCC/C=C/C/C=C\C/C=C\C/C=C\CCCC(=O)O	0.5
CCCCC/C=C/CC(O)C(O)C/C=C\C/C=C\CCCC(=O)O (trans isomer)	0.5
